# Source: BindingDB's records for doi:10.1021/bi9007287 (Max Planck Research, 2009)
# How the values were obtained:
# [1] = molecular target: Peptidyl-prolyl cis-trans isomerase B (Human, UniProt P23284); experiment: PPIase Assay; conditions: pH 7.8; 5 °C
# [2] = molecular target: Peptidyl-prolyl cis-trans isomerase A (Homo sapiens, UniProt P62937); experiment: PPIase Assay; conditions: pH 7.8; 5 °C
# [3] = molecular target: T1, Peptidyl-prolyl cis-trans isomerase-like 1 (Homo sapiens, UniProt Q9Y3C6); experiment: PPIase Assay; conditions: pH 7.8; 5 °C
# T1 sequence (Q9Y3C6 whole entry): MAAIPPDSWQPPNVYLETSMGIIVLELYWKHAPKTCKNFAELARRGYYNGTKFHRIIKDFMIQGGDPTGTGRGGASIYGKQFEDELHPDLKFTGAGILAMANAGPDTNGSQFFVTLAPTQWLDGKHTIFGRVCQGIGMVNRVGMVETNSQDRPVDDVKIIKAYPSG
# [4] = molecular target: Peptidyl-prolyl cis-trans isomerase H (Homo sapiens, UniProt O43447); experiment: PPIase Assay; conditions: pH 7.8; 5 °C
# Peptidyl-prolyl cis-trans isomerase H, sequence (O43447 whole entry): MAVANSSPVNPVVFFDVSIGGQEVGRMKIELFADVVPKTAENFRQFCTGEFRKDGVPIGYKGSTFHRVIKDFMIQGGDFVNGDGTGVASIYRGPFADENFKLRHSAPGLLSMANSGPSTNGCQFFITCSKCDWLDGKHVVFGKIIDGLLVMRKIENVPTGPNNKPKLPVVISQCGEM
# [5] = molecular target: Peptidyl-prolyl cis-trans isomerase C (Mus musculus) (UniProt P30412); experiment: PPIase activity assay were performed at 283 K in quartz cuvettes with a path length of 1 cm under vigorous stirring with a Hewlett-Packard 8453A UV-vis spectrophotometer in 35 mM HEPES buffer (pH 7.8).
# Peptidyl-prolyl cis-trans isomerase C (Mus musculus), sequence (P30412 whole entry, looked up): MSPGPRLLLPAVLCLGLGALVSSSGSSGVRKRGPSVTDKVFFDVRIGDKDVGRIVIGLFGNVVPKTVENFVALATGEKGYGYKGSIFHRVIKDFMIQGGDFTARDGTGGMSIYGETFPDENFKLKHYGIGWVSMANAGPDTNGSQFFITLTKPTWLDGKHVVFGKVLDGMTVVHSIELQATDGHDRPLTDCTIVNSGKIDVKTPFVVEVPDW
# Peptidyl-prolyl cis-trans isomerase A, sequence (P62937 whole entry): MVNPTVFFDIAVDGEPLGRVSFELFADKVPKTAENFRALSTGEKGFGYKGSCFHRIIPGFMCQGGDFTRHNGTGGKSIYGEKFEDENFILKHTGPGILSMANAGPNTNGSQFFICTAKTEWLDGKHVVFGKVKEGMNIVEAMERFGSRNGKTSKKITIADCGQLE
# Peptidyl-prolyl cis-trans isomerase B, sequence (P23284 whole entry): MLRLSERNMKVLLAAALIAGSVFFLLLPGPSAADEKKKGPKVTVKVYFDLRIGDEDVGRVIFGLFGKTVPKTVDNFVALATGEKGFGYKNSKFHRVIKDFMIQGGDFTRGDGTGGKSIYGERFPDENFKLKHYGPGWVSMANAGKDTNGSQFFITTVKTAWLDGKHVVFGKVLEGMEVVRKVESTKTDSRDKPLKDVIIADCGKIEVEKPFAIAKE
Ki [1],Ki [2],Compound,Ki [3],Ki [4],Ki [5]
12 µM,0.3 µM,"Nc1cc(F)cc(-c2ccc(O)c(C(=O)C3CCc4ccccc43)c2)c1O (centres undefined) [Aryl 1-indanylketone, 2]",> 100 µM,> 100 µM,> 100 µM
8.6 µM,1.7 µM,"COc1ccc(F)cc1-c1cc(N)c(O)c(C(=O)C2CCc3ccccc32)c1 (centres undefined) [Aryl 1-indanylketone, 3]",–,–,–
> 100 µM,> 100 µM,"COc1ccc(F)cc1C(=O)C1(C)CCc2ccccc21 (centres undefined) [Aryl 1-indanylketone, 6]",–,–,–
> 100 µM,> 100 µM,"O=C1Oc2ccccc2C12Cc1ccccc1C2 [Benzofuranone, 8]",–,–,–
63 µM,> 100 µM,"COc1ccc2c(c1)C(=O)C1(Cc3ccccc3C1)O2 [Benzofuranone, 9]",–,–,–

# The remaining lines, values behind:
Compound,Ki [1],Ki [2],Ki [3],Ki [4],Ki [5]
"O=C(c1cc(-c2cc(F)cc([N+](=O)[O-])c2O)cc([N+](=O)[O-])c1O)C1CCc2ccccc21 (centres undefined) [Aryl 1-indanylketone, 1]",> 100 µM,0.52 µM,29 µM,> 100 µM,> 100 µM
"COc1ccc(-c2ccc(OC(F)(F)F)cc2)cc1C(=O)C1CCc2ccccc21 (centres undefined) [Aryl 1-indanylketone, 4]",2.1 µM,1.2 µM,–,–,–
"COc1ccc(C(F)(F)F)cc1C(=O)C1CCc2ccccc21 (centres undefined) [Aryl 1-indanylketone, 5]",> 100 µM,10 µM,–,–,–
"COc1ccc2c(c1)C1(CC(C)c3ccccc31)C(=O)O2 (centres undefined) [Benzofuranone, 7]",> 100 µM,21 µM,–,–,–
